These are literature values, as cited in US20200360276A1 (Aerovate Therapeutics, Inc., priority 2019, published 2020).

The conditions of series [1]: relative to imatinib parent compound.
The conditions of series [2]: relative to imatinib parent compound. This is another data set of the same source.
Series [3] relates to platelet-derived growth factor receptor (PDGFR).
For series [4] the following is noted: aqueous solution, dependence on pH.

Turning to `Cc1ccc(NC(=O)c2ccc(CN3CCNCC3)cc2)cc1Nc1nccc(-c2cccnc2)n1` [N-desmethyl imatinib], the potency result in series [1] is “same potency as the imatinib parent compound”. Further, the half-life entry in series [2] is “increased half-life relative to the parent imatinib compound”. Moreover, the “inhibition of PDGFR” value in series [3] is reported as “potent inhibitor”. In addition, the solubility result in series [4] is given as “increases as the pH drops”.
